Laboratory results as given in patent publication US8912220B2 (priority 2009, dated 2014).

Target: T1, human 5-HT6 (Homo sapiens, UniProt P50406)
T1 construct: expressed in transfected cells
Experiment: cAMP agonist and antagonist mode at 5-HT6 (HTRF, 1321N1 cells)
Type: cell-based
Conditions: reference agonist, used in antagonist mode
Description: For assessment of 5-HT6 activity, 1321N1 cells stably expressing human 5-HT6 were grown to ˜90% confluence in a humidified atmosphere at 37° C. with 5% CO2 in F12 nutrient mixture (Ham) containing 10% dialyzed FBS, 400 µg/ml G418, 100 U/ml penicillin, and 100 µg/ml streptomycin. Medium was removed by aspiration, cells were washed 1× with PBS, and dissociated using PBS-EDTA for […] at room temperature. Cells were then diluted with PBS and pelleted by centrifugation for […] at 1000 rpm. Cells were suspended in assay buffer containing 3000 µM Ro-20-1724 (Sigma, St. Louis, Mo.), a phosphodiesterase inhibitor. Cells were seeded using a microplate dispenser at a density of 3,750 cells/well in a volume of 5 µl onto 384 well white wall/opaque bottom, small volume plates (Greiner Bio One, Monroe, N.C.).
Compound plates for cAMP assays were prepared at 8 mM in 100% DMSO and diluted in assay buffer to the appropriate test concentrations. The final in-well concentration of DMSO was 0.5%. Compounds were tested in duplicate wells using a range of twelve concentrations. […]
Homogeneous time-resolved fluorescence (HTRF) (cAMP dynamic 2 kit; Cisbio, Bedford, Mass.) was used to measure the formation of 3′,5′-cyclic adenosine monophosphate (cAMP) per the manufacturer's instructions. HTRF signal was measured at 620 and 665 nm using an EnVision Multilabel Plate Reader (PerkinElmer). […]

T1 sequence (P50406 whole entry): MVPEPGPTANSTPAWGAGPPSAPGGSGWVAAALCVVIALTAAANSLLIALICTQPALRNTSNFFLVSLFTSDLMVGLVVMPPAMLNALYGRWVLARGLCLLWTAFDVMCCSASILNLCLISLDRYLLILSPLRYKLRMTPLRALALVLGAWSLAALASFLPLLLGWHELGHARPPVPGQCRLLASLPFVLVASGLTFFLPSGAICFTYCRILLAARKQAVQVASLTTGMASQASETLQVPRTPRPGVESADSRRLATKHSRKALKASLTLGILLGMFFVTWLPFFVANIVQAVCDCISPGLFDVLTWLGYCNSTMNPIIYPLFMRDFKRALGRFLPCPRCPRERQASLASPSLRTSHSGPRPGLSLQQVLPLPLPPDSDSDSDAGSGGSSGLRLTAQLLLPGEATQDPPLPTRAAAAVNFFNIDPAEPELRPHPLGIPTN

NCCc1c[nH]c2ccc(O)cc12 [5-HT, 5-hydroxytryptamine]
EC80 of 5-HT: 15 nM
